# Results as given in US11007199B2, “Compositions and methods for ameliorating pain and reducing fever” (The Board of Supervisors of Louisiana State University and …, priority 2017, dated 2021).
# “Also recorded” adds a separate entry of the source.
# How the values were obtained:
# [1] = tested on: CD1 male mice; assay: Tail-flick assay; settings: in vivo analgesia model, FIG. 8; per os at 40 mg/kg
# Procedure: Tail-flick assay. Analgesic effect of drugs was determined by using the reaction time (latency) of mice to thermal stimulation of the tail tip. All animals (CD1 male mice) were fasted overnight (with free access to water) and their baseline tail flick latency (seconds) was recorded twice for each mouse using an IITC Tail Flick Analgesia Meter.
# After measurement of baseline latency, drugs were administered per os at 40 mg/kg to animals belonging to the treatment groups. At 30 minutes post injection, tail flick latency was recorded again, twice for each mouse, to determine total change in latency. Mice were subjected to cold shock by dipping their tails into ice-cold water at 4° C.
# Percentage of maximum analgesia for each mouse were calculated with the formula, Percentage Analgesia=100*{[(Latency to tail flick after drug injection)−(Latency to tail flick at baseline)]/[(12 sec cutoff time)−(Baseline latency)]}. Data expressed as mean±SEM, n=10.
# [2] = tested on: CD-1 male mice; assay: Acetic acid-induced abdominal writhing assay; assay type: in vivo
# Procedure: Acetic acid-induced abdominal writhing assay. Contraction of the abdominal muscle and stretching of the hind limbs is induced as a response to intraperitoneal (ip) injection of an acetic acid solution, as described Hendershot and Forsaith, 1959. In this model of visceral pain, abdominal contractions (writhing) is induced in mice by an ip injection of 0.4% acetic acid at a dose of 10 mL/Kg, 25 min after drug administration. The number of writhes is counted for 10 min beginning 5 min after acetic acid injection.
# All groups have been compared to vehicle and differences analyzed by one-way ANOVA followed by Sidak's multiple comparison post hoc test.
# [3] = tested on: CD-1 male mice; assay: Baker yeast-induced hyperthermia (antipyresis); assay type: in vivo; settings: 50 mg/kg bw p.o., baker's yeast-induced fever, FIG. 5
# Procedure: The antipyretic effect of the compounds was assessed utilizing baker yeast-induced hyperthermia. All animals (CD-1 male mice weighing between 45-50 g) were fasted overnight (with free access to water) and their baseline temperature was recorded using a Cole-[…] rectal thermometer probe. […] (206% […].); (Groups 5-6) DEA salt-Brewer's yeast soln. (20% w/v) (i.p.) and DEA Salt (50 mg/kg bw) (p.o.). Two hours post-injection, rectal temperatures were recorded once again, to determine total change in body temperature. Percentage Change in body temperature is calculated with the formula, Percentage Change=[(Total change in body temperature)/(Base temperature)*100]. Data is expressed as mean±SEM, n=10.
# [4] = tested on: rats; assay: Von Frey analgesia assay; settings: in vivo analgesia model, FIG. 8; IP injection
# Procedure: Von Frey analgesia assay. Twenty rats are brought into the eVF room and allowed to acclimate to the room for 30 minutes. At the 30 minute mark, saline injections begin. 30 minutes after the saline injection, the eVF readings of the rats are taken by applying the filament of the eVF machine to the center of the bottom of the hind paws (left and right) of each rat. The filament uses a magnet to remain attached to the probe, which measures the pressure in grams applied to the filament. The pressure readout is then recorded from the transducer.
# After saline injections, a drug is injected (different compound each day). In the same manner as saline injections, at the 30 minute mark after each drug injection, eVF readings of each rat are taken.
# Drug Injection/Concentration: All drugs and saline were administered by intraperitoneal (IP) injection. Each injection was 1 mL/kg of body weight (i.e., 463 g rat received 0.463 mL of injection). Four doses on a logarithmic scale for ApAP w ere used. 10 mg/kg, 32 mg/kg, 100 mg/kg, and 320 mg/kg.
# [5] = tested on: hepatocytes; assay: Hepatotoxicity (LDH assay, GSH assay); assay type: cell-based; settings: FIG. 6
# Procedure: LDH assay. Using the Pierce LDH Cytotoxicity assay kit from Thermo Scientific, cells were incubated in presence of various drug compounds, followed by collection of the medium supernatant. Release of LDH was measured in 96 well plate formats. The absorbance was measured at 490 nm and 680 nm and the final result was absorbance observed at 680 nm subtracted from absorbance observed at 490 nm (A490nw-A680nm).
# GSH assay. Using the ThiolTracker Violet Glutathione Detection reagent from Molecular Probes (Invitrogen), after hepatocytes were incubated in the presence of various compounds, incubation medium was removed, cells rinsed with D-PBS conditioned medium followed by incubation with pre-warmed ThiolTracker Violet dye (working solution prepared as per manufacturer's instructions) for 30 minutes. Fluorescence was measured at the following wavelengths: excitation (404 nm) and emission (526 nm). The finalized result was expressed as relative fluorescence units (RFU), which indicates the cellular level of reduced glutathione (GSH) in intact cells.
# Hepatotoxicity results for the inventive DEA salt compound are shown m FIG. 6.
smiles,measurement,setting,value
"CCNCC.O=C(CNS(=O)(=O)c1ccccc1C(=O)O)Nc1ccc(O)cc1 [DEA salt, 2-[[2-(4-hydroxyanilino)-2-oxo-ethyl]sulfamoyl]benzoate diethylammonium salt]","reducing pain versus ApAP, tail flick assay",[1],comparable to ApAP in reducing pain
same,calculated 50% effective dose (ED50) based on the writhing assay,"[2]; CD-1 male mice, per os, ip 0.4% acetic acid",10.3 mg/kg
same,number of writhes induced by injection of acetic acid,"[2]; FIG. 8, vehicle only nearly 40",under 20
same,"reducing pain versus ApAP, acetic acid-induced abdominal writhing","[2]; in vivo analgesia model, FIG. 8",comparable to ApAP in reducing pain
same,antipyretic effect versus ApAP,[3],antipyretic effect comparable to ApAP
same,"reducing pain versus ApAP, Von Frey assay",[4],comparable to ApAP in reducing pain
same,hepatotoxicity versus ApAP,[5],minimal hepatotoxicity; also recorded: decreased toxicity
